Measurements reported in patent publication US5254682A, “Cyclic renin inhibitors containing 3(S)-amino-4-cyclohexyl-2(R)-hydroxy-butanoic acid or 4-cyclo-hexyl-(2R, 3S)-dihydroxybutanoic acid or related analogs” (Merck & Co., Inc., priority 1991, dated 1993).
Where two headings read alike, the source gives them in different places. Where a SMILES comes first, the peptide text is derived from it. [ ]: non-standard residue; d: D form. The star is where a group is joined. Sta = CC(C)C[C@H](N)[C@@H](O)CC(=O)O; Isovaleryl = CC(C)CC(=O)*

Key:
[1] = amide bond, 2 steps
[2] = tested on: sodium-deficient Rhesus monkeys; assay: intravenous evaluation of renin inhibitors in conscious sodium-deficient Rhesus monkeys (blood pressure lowering); type: in vivo; conditions: i.v. bolus
Text: The following methods were used for in vivo evaluation of the renin inhibitors of Formula I: Intravenous evaluation of renin inhibitors in concious sodium-deficient Rhesus monkeys: Rhesus monkeys, male and female, weighing 2.6-4.5 Kg, were surgically prepared with chronic arterial and venous catheters and vascular access ports for direct monitoring of mean arterial pressure (MAP) and heart rate (HR). The animals were maintained on a low sodium diet (1.2 mmol Na/day) plus fruit for a week, and administered LASIX (furosemide) at 2.5 mg/Kg, intramuscularly the evening prior to the experiment. The animals had been trained to sit quietly in the chairs with water ad libium for the duration of the experiment. The inhibitors were administered by bolus injection using 0.5% acetic acid-5% dextrose in water as the vehicle (0.4 ml/Kg), and MAP and HR were measured. Blood samples were withdrawn at different time intervals beginning at the nadir of hypotensive response. PRA was determined as described above. […] A projected ED50 dose for each inhibitor was calculated using the following formula: ED50 (Test Inhibitor, umoles/Kg)=ED50 (SCRIP) X [IC50 (Test Inhibitor)/IC50 (SCRIP)], where the IC50 values were determined against human plasma renin. […] Percent inhibition of monkey PRA, changes in MAP and HR were calculated and plotted against time. […]

## O=C1CC[C@H](NC(=O)OCc2ccccc2)C(=O)N[C@@H](CC2CCCCC2)[C@@H](O)C(=O)OC(CN2CCOCC2)CN1 (stereo partly shown)
[1]; from CC(C)(C)OC(=O)[C@H](CCC(=O)NCC(CN1CCOCC1)OC(=O)[C@@H]1OC(C)(C)N(C(=O)OC(C)(C)C)[C@H]1CC1CCCCC1)NC(=O)OCc1ccccc1
  ring closure, yield of all isomers: 61%

## O=C(N[C@H]1CSCCC[C@H](CN2CCOCC2)OC(=O)[C@H](O)[C@H](CC2CCCCC2)NC1=O)OCc1ccccc1
[1]; from N[C@@H](CC1CCCCC1)[C@@H](O)C(=O)O[C@H](CCCSC[C@H](NC(=O)OCc1ccccc1)C(=O)O)CN1CCOCC1
  ring closure, yield of all isomers: 38%

## CC(C)(C)OC(=O)N[C@H]1CNC(=O)CCCCOC(=O)[C@H](O)[C@H](CC2CCCCC2)NC1=O
[1]; from CC(C)(C)OC(=O)N[C@@H](CNC(=O)OCc1ccccc1)C(=O)N[C@@H](CC1CCCCC1)[C@@H](O)C(=O)OCCCCC(=O)OCc1ccccc1, DPPA, triethylamine
  ring closure, yield of all isomers: 27%

## O=C(N[C@H]1CSCCCCOC(=O)[C@H](O)[C@H](CC2CCCCC2)NC1=O)OCc1ccccc1
[1]; from N[C@@H](CC1CCCCC1)[C@@H](O)C(=O)OCCCCSC[C@H](NC(=O)OCc1ccccc1)C(=O)O
  ring closure, yield of all isomers: 34%

## CCCCC1CNC(=O)CC[C@H](NC(=O)OCc2ccccc2)C(=O)N[C@@H](CC2CCCCC2)[C@@H](O)C(=O)O1 (stereo partly shown)
[1]; from CCCCC(CNC(=O)CC[C@H](NC(=O)OCc1ccccc1)C(=O)OC(C)(C)C)OC(=O)[C@@H]1OC(C)(C)N(C(=O)OC(C)(C)C)[C@H]1CC1CCCCC1, EDC/HOBt
  ring closure, yield of all isomers: 54%

## CC1CC(=O)NCCOC(=O)[C@H](O)[C@H](CC2CCCCC2)NC(=O)[C@H]1NC(=O)OCc1ccccc1 (stereo partly shown)
[1]; from CC(CC(=O)NCCOC(=O)[C@@H]1OC(C)(C)N(C(=O)OC(C)(C)C)[C@H]1CC1CCCCC1)[C@H](NC(=O)OCc1ccccc1)C(=O)OCC[Si](C)(C)C
  ring closure, yield of all isomers: 62%

## CC(C)CC1CNC(=O)CC[C@H](NC(=O)OCc2ccccc2)C(=O)N[C@@H](CC2CCCCC2)[C@@H](O)C(=O)O1 (stereo partly shown)
[1]; from CC(C)CC(CNC(=O)CC[C@H](NC(=O)OCc1ccccc1)C(=O)OC(C)(C)C)OC(=O)[C@@H]1OC(C)(C)N(C(=O)OC(C)(C)C)[C@H]1CC1CCCCC1, THF
  ring closure, yield of all isomers: 51%

## CC(C)CC(=O)N[C@@H](Cc1c[nH]cn1)C(=O)N1CCC[C@H]1C(=O)N[C@@H](Cc1ccccc1)C(=O)N[C@@H](Cc1c[nH]cn1)C(=O)N[C@@H](CC(C)C)[C@@H](O)CC(=O)N[C@@H](CC(C)C)C(=O)N[C@@H](Cc1ccccc1)C(N)=O [SCRIP, Iva-His-Pro-Phe-His-Sta-Leu-Phe-NH2] (Isovaleryl-HPFH[Sta]LF-NH2)
[2]
  ED50 (i.v. dose required to lower blood pressure by 50% of the maximal response): 0.039 µmol/kg

## O=C1CC[C@H](NC(=O)OCc2ccccc2)C(=O)N[C@@H](CC2CCCCC2)[C@@H](O)C(=O)OC(CN2CCOCC2)CO1 (stereo partly shown)
[1]; from CC(C)(C)OC(=O)[C@H](CCC(=O)OCC(CN1CCOCC1)OC(=O)[C@@H]1OC(C)(C)N(C(=O)OC(C)(C)C)[C@H]1CC1CCCCC1)NC(=O)OCc1ccccc1, THF
  ring closure, yield of all isomers: 32%

## CC(C)(C)OC(=O)N[C@H]1CCC(=O)NCCCC2(OCCO2)[C@H](O)[C@H](CC2CCCCC2)NC1=O
[1]; from CC(C)(C)OC(=O)N[C@@H](CCC(=O)OCc1ccccc1)C(=O)N[C@@H](CC1CCCCC1)[C@@H](O)C1(CCCN=[N+]=[N-])OCCO1, DPPA, triethylamine
  ring closure, yield of all isomers: 30%
